# Test results reported in PubChem BioAssay AID624383 (Sanford-Burnham Center for Chemical Genomics, 2012).
# pIC50: −log10 of the molar value. Active and inactive are the calls of the source. How the calls were made is not given here.
# Molecular target: Small ubiquitin-related modifier 1 (Homo sapiens) (UniProt P63165)
# Assay: inhibitors of SUMO1 partner interactions, dose response, biochemical, FRET (AID 624383)
# Details: SUMO1 protein-protein interaction, in vitro
# Chain of Small ubiquitin-related modifier 1 (Homo sapiens) (P63165 whole entry, looked up): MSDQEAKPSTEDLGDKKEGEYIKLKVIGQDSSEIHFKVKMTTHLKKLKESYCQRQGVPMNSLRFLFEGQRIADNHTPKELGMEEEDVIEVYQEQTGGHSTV
IC50,Structure (SMILES),pIC50
inactive,C[c-]1[c-](C)[c-](C)[c-](C)[c-]1C.[Fe].c1cc2nccc(N3CCCC3)[c-]2c1 (stereo not drawn),–
–,CCN(CC)P(=O)(NC(=O)C(Cl)(Cl)Cl)N(CC)CC.[Cl-].[Cl-].[Cl-].[Nd+3],6.22
–,C=Cc1c(C)c2cc3[nH]c(cc4nc(cc5nc(cc1[nH]2)C(C)=C5CCC(=O)O)C(CCC(=O)O)=C4C)c(C)c3C=C,5.74
